Measurements: patent US20200016207A1, “[…] c-MPL PROVIDES LIGAND-DEPENDENT CO-STIMULATION AND CYTOKINE SIGNALS TO TCR-ENGINEERED T CELLS” (Baylor College of Medicine, priority 2017, published 2020)

How the values were obtained:
[1] = tested on: immune synapses between TCR+c-MPL+ T cells and BV173 leukemia cells; assay: Immunological synapse imaging (confocal microscopy); type: cell-based, human; conditions: mean±SD
Description: T cells isolated from sequential killing co-cultures and fresh BV173 target cells were mixed at E:T 1:2, incubated for 10 minutes, fixed, permeabilized, stained with the appropriate antibodies, and analyzed on a Leica TCS SP8 laser scanning microscope. T cells were co-cultured with BV173 cells at an E:T ratio of 1:5 in CTL media with no cytokines, rhTPO (50 ng/mL) or EP (0.1 μg/mL). After one killing (no cytokine condition) or three sequential killings (rhTPO and EP conditions), cells were collected and dead cells removed (Dead Cell Removal Kit, Miltenyi) (FIG. 4A). For confocal microscopy, T cells and fresh BV173 target cells were mixed at E:T ratio of 1:2, incubated for ten minutes in a tube and ten minutes on silane-coated glass slides (Electron Microscopy Sciences) at 37° C. Cells were then permeabilized and fixed with Perm/Fix solution (BD) for 15 minutes at room temperature and stained with anti-Pericentrin (rabbit, Abcam) and anti-Perforin Alexa-488 (mouse, BD Biosciences) primary antibodies. Phalloidin 568 (Life Technologies) was used to detect F-actin. Cells were imaged as Z stacks of 0.2 μm thickness to cover their entire volume on a Leica TCS SP8 laser scanning microscope using a 100× objective. Images were acquired with the LASAF software (Leica) and analyzed with Imaris software (Imaris) and Fiji.

c-MPL+ T cells = assay: EP dose-titration, T cell expansion on OKT3/CD28-coated plates; type: cell-based, human
Description: Similar results were obtained with the TPO small molecule agonist EP. A dose-titration experiment was used to determine the optimal concentration of EP to support c-MPL+ T cell expansion (FIG. 2C). EP was previously shown to inhibit leukemia cell proliferation at higher concentrations (1-10 μg/ml) by reduction of intracellular iron, a c-MPL independent effect (Roth et al., 2012). NT or c-MPL+ T cells were re-activated on OKT3/CD28-coated plates in the presence of different EP concentrations and expansion of viable T cells was determined after 7 days. […] Thus, the effective EP concentration for c-MPL+ T cells was about 1 log lower than in previous reports assessing effects of EP on megakaryocytic progenitor cells or leukemia cells *Roth et al., 2012; Will et al., 2009). To assess c-MPL ligand-dependent signaling in TCR+c-MPL+ T cells, cells were left untreated (noCK) or treated with TPO50 or EP for 1 (left) or 24 hours (right). […] Next, it was evaluated whether rhTPO enhanced the anti-tumor function of TCR+c-MPL+ T cells using two different HLA-A*0201+survivin+hematologic malignancies as targets (U266 multiple myeloma, BV173 leukemia) (FIGS. 2E-2F). […] Again, addition of IL2 led to significant but antigen-independent enhancement of T cell expansion.

[2] = after three tumor cell challenges
[3] = baseline after T cell expansion

For `CC1=NN(c2ccc(C)c(C)c2)C(=O)/C1=N\Nc1cccc(-c2cccc(C(=O)O)c2)c1O` [EP, eltrombopag, reference compound], the “MTOC to synapse distance, co-culture” value [1, 2] was 1.09±1.16 μm, the “perforin distance to the synapse (perforin convergence), co-culture” value [1, 2] was 4.25±1.28 μm and the “actin accumulation at the synapse, co-culture” value ([1]; after three tumor cell challenges, rhTPO 50 ng/mL or EP 0.1 μg/mL) was 53.29±12.47%. For the same compound, the “MTOC to synapse distance, baseline” value [1, 3] was 2.42±2.14 μm, the “actin accumulation at the synapse, baseline” value [1, 3] was 40.95±14.82% and the “perforin distance to the synapse (perforin convergence), baseline” value [1, 3] was 4.26±2.04 μm. The “effect of EP treatment at 3 μg/ml on T cells” value (c-MPL+ T cells; 3 μg/ml) was “uniformly lethal to T cells”, the “effect of EP levels higher than 0.1 μg/ml on T cells” value (c-MPL+ T cells; 7 days) was “toxic to the T cells” and the “EP concentration retained to support c-MPL+ T cell expansion” value (c-MPL+ T cells; 7 days, OKT3/CD28-coated plates) was 0.1 µg/mL.
